Data published in BindingDB's records for doi:10.7270/Q2DF6PMF (Nmmlsc, 2007).

These compounds were tested against T1, N-formyl peptide receptor 2 (Homo sapiens, UniProt P25090) (assay: concentration-dependent FPRL1 ligand displacement – cell-based, FPR counter-screen, fluorescent ligand, dose response (AID 520)). Details: not given.
T1 sequence (P25090 whole entry): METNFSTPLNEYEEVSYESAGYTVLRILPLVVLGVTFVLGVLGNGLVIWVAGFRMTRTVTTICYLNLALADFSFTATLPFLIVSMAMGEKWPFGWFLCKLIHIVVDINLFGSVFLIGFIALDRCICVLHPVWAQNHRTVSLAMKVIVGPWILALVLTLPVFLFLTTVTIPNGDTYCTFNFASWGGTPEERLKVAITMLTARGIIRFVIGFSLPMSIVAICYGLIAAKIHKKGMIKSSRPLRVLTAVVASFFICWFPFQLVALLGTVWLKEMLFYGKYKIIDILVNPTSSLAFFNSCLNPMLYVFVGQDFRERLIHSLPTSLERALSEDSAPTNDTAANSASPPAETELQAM

Compound	IC50	Ki
COc1ccc(S(=O)(=O)NC(C)C(=O)Nc2cccc(C(C)=O)c2)cc1 (stereo not drawn) [MLS000051414]	> 66.7 µM	
C=CCn1c(NC(=O)c2ccccc2)c(C#N)c2nc3ccccc3nc21 [MLS000057035]	> 66.7 µM	
O=S(=O)(Nc1cccc2ncccc12)c1cccs1 [MLS000057468]	> 66.7 µM	
O=C(NC1CCCC1)C1CC1c1ccccc1 (stereo not drawn) [MLS000061073]	> 66.7 µM	
COc1ccc(NC(=O)C2C3CCC(C3)C2C(=O)O)cc1OC (stereo not drawn) [MLS000061524]	> 66.7 µM	
Cc1nnc(SCc2cnc(-c3ccccc3)o2)nc1O [MLS000061907]	> 66.7 µM	
Cc1cc2oc(C(=O)NC3CCS(=O)(=O)C3)c(C)c2cc1C (stereo not drawn) [MLS000063255]	> 66.7 µM	
CSc1ccccc1NS(=O)(=O)c1ccccc1 [MLS000064343]	> 66.7 µM	
CC1(C)S[C@@H]2[C@H](NC(=O)Cc3ccccc3)C(=O)N2[C@H]1C(=O)O [MLS000069426]	> 66.7 µM	
CCCCn1c(NC(C)=O)c(C#N)c2nc3ccccc3nc21 [MLS000079917]	> 66.7 µM	
CCCCn1c(NC(=O)CC)c(C#N)c2nc3ccccc3nc21 [MLS000079918]	> 66.7 µM	
CCCC(=O)Nc1c2c(nn1-c1ccc(OC)cc1)C[S+]([O-])C2 (stereo not drawn) [MLS000086302]	> 66.7 µM	
COc1ccc(-c2cc(C(F)(F)F)nc(NC3CCCC3)n2)cc1OC [MLS000086438]	> 66.7 µM	
COC(=O)C1=[N+]([O-])OC(C(=O)OC)C1c1c[nH]c2ccccc12 (stereo not drawn) [MLS000090094]	> 66.7 µM	
CCOc1ccccc1NC(=O)CSc1nccn1-c1ccccc1 [MLS000090721]	> 66.7 µM	
CC(=O)SCC(=O)N=c1sc2cc(F)ccc2n1C [MLS000091388]	> 66.7 µM	
CCSc1nnc(NC(=O)CSc2nnc(Cc3cccn3C)n2CCc2ccccc2)s1 [MLS000092939]	> 66.7 µM	
CCOC(=O)c1sc(=S)n2c1[nH]c(=O)c1ccc(C(=O)OC)cc12 [MLS000094734]	> 66.7 µM	
CCC(C)(C(=O)NC1CCCC1)N(CC1CCCO1)C(=O)c1ccc2c(c1)OCO2 (stereo not drawn) [MLS000095004]	> 66.7 µM	
Cc1cccc(-n2nc3c(c2NC(=O)c2ccco2)CSC3)c1C [MLS000095654]	> 66.7 µM	
Cc1cccc(OCC(=O)Nc2cc(C)ccc2O)c1 [MLS000100112]	> 66.7 µM	
COc1ccc(OC)c(NC(=O)C2C3CCC(C3=C(C)C)C2C(=O)O)c1 (stereo not drawn) [MLS000110216]	> 66.7 µM	
CC(=O)OCCNc1cc(N2CCN(C)CC2)c2noc3c2c1C(=O)c1ccccc1-3 [MLS000118373]	6.9 µM	
COc1ccc(-n2c(Cc3cccn3C)nnc2SCC(=O)Nc2ccc(Cl)cc2)cc1 [MLS000118695]	> 66.7 µM	
Cc1ccc(NC(=O)C2CCCN2S(=O)(=O)c2cccc3cccnc23)cc1F (stereo not drawn) [MLS000119092]	> 66.7 µM	
CCOC(=O)c1cc(NC(=O)C2C3CCC(O3)C2C(=O)O)cc(C(=O)OCC)c1 (stereo not drawn) [MLS000521500]	> 66.7 µM	

Compound	IC50	Ki
O=c1c(C23CC4CC(CC(C4)C2)C3)c(O)n(-c2ccccc2)n1-c1ccccc1 [MLS000526352]	> 66.7 µM	> 40.3 µM
Cc1[nH]n2c(=O)c3c(nc2c1-c1cccc2ccccc12)CCC3 [MLS000530451]	> 66.7 µM	
CCC(SC1=Nc2ccccc2C2=NC(CC(C)C)C(=O)N12)C(=O)Nc1ccc2c(c1)OCO2 (stereo not drawn) [N-(1,3-benzodioxol-5-yl)-2-[[2-(2-methylpropyl)-3-oxo-2H-imidazo[1,2-c]quinazolin-5-yl]sulfanyl]butanamide]	> 66.7 µM	
COCCN1Cc2cccc(C(=O)NCc3ccc4c(c3)OCO4)c2C1=O [N-(1,3-benzodioxol-5-ylmethyl)-2-(2-methoxyethyl)-3-oxoisoindoline-4-carboxamide]	> 66.7 µM	
COc1ccc(NC(=O)C2C(=O)NC3(C)CC2c2ccccc2O3)cc1 (stereo not drawn) [N-(4-methoxyphenyl)-2-methyl-4-oxo-3,4,5,6-tetrahydro-2H-2,6-methano-1,3-benzoxazocine-5-carboxamide]	> 66.7 µM	
Cc1cc(NC(=O)CSc2nnc(Cn3c(=O)sc4ccccc43)n2-c2ccccc2C)no1 [N-(5-methyl-3-isoxazolyl)-2-[[4-(2-methylphenyl)-5-[(2-oxo-1,3-benzothiazol-3-yl)methyl]-1,2,4-triazol-3-yl]thio]acetamide]	> 66.7 µM	
COc1cc2c3c(c1)/C(=C1/SC(NC(C)=O)=NC1=O)C(=O)N3C(C)(C)C=C2C [N-[5-(8-methoxy-4,4,6-trimethyl-2-oxo-4H-pyrrolo[3,2,1-ij]quinolin-1(2H)-ylidene)-4-oxo-4,5-dihydro-1,3-thiazol-2-yl]acetamide]	> 66.7 µM	
Cc1ccc(C)c(-n2c(CNC(=O)c3ccco3)nnc2SCC(=O)N2CCc3ccccc32)c1 [N-[[5-[2-(2,3-dihydroindol-1-yl)-2-oxoethyl]sulfanyl-4-(2,5-dimethylphenyl)-1,2,4-triazol-3-yl]methyl]furan-2-carboxamide]	> 66.7 µM	
CCCCNC(=O)c1sc(=S)n2c1[nH]c(=O)c1ccccc12 [N-butyl-5-oxo-1-thioxo-4,5-dihydro[1,3]thiazolo[3,4-a]quinazoline-3-carboxamide]	> 66.7 µM	
C[N+]1(C)[C@@H]2CC(OC(=O)[C@H](CO)c3ccccc3)C[C@H]1[C@@H]1O[C@@H]12 (stereo partly drawn) [SCOPOLAMINE METHYL NITRATE]	> 66.7 µM	
CCc1c(C)nc2c(C#N)c(C)[nH]n2c1=O [SMR000013340]	> 66.7 µM	
Cc1ccc(NC(=O)C2C(=O)N(CCO)C3(C)CC2c2ccccc2O3)cc1 (stereo not drawn) [SMR000015827]	> 66.7 µM	
COc1ccccc1-n1c(CNC(=O)c2ccco2)nnc1SCC(=O)Nc1ccc(F)cc1 [SMR000021507]	> 66.7 µM	
CCN(CC)c1ccc(C=NC(C#N)C(=N)C#N)cc1 (stereo not drawn) [SMR000023871]	> 66.7 µM	> 40.3 µM
COc1cccc(OC)c1C(=O)C(C#N)c1nc2ccccc2[nH]1 (stereo not drawn) [SMR000024183]	> 66.7 µM	> 40.3 µM
O=S(=O)(c1c[nH]cn1)N1CCc2ccccc21 [SMR000026956]	> 66.7 µM	
CCC(Sc1nc2c(c(=O)[nH]1)CCC2)C(=O)Nc1cccc(OC)c1 (stereo not drawn) [SMR000028729]	> 66.7 µM	
O=C(NC1CCCCC1)c1sc(=S)n2c1[nH]c(=O)c1ccccc12 [SMR000030293]	> 66.7 µM	
CCC(=O)Nc1c(C#N)c2nc3ccccc3nc2n1-c1ccccc1C [SMR000039884]	> 66.7 µM	
Cc1[nH]n2c(=O)c(C#N)c(-c3ccccc3)nc2c1-c1ccccc1 [SMR000047798]	> 66.7 µM	
CN1C(=O)/C(=C2\SC(=S)N(C(CCC(=O)O)C(=O)O)C2=O)c2ccccc21 (stereo not drawn) [SMR000054993]	> 66.7 µM	
CCCc1nc2ccccc2c2nc(N)nn12 [SMR000073509]	> 66.7 µM	
Cc1[nH]n2c(=O)c3c(nc2c1-c1ccccc1)CCC3 [SMR000082027]	> 66.7 µM	
COc1ccccc1-c1c(C)oc2cc(OC(=O)c3ccco3)ccc2c1=O [[3-(2-methoxyphenyl)-2-methyl-4-oxidanylidene-chromen-7-yl] furan-2-carboxylate]	> 66.7 µM	
CCOC(=O)Cc1cc(=O)n2[nH]c(C)c(-c3ccc(Cl)cc3)c2n1 [ethyl 2-[3-(4-chlorophenyl)-2-methyl-7-oxo-1H-pyrazolo[1,5-a]pyrimidin-5-yl]acetate]	> 66.7 µM	
COC(=O)c1[nH]c(C)c(C(=O)C2C(=O)C(=O)N(CCCN3CCOCC3)C2c2ccccn2)c1C (stereo not drawn) [methyl 4-{[4-hydroxy-1-[3-(4-morpholinyl)propyl]-5-oxo-2-(2-pyridinyl)-2,5-dihydro-1H-pyrrol-3-yl]carbonyl}-3,5-dimethyl-1H-pyrrole-2-carboxylate]	> 66.7 µM	> 40.3 µM

Same assay, conditions: inactive by the depositor's call

Compound	IC50
CCOC(=O)N1CCN(c2cc(NCCC(=O)O)c3c4c(onc24)-c2ccccc2C3=O)CC1 [MLS000086406]	49.9 µM
Cc1[nH]n2c(=O)cc(-c3ccc([N+](=O)[O-])cc3)nc2c1-c1ccccc1 [MLS000547439]	31.7 µM
